Assay results reported in PubChem BioAssay (NCI).
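In this assay, cells in 96-well plates receive the compound at five concentrations for 48 hours. Endpoints are linearly interpolated between the surrounding concentrations. The concentration for 50% growth inhibition is given as GI50. TGI: concentration producing complete growth inhibition.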

Key:
Assay in all cases: DTP human tumour cell line panel, 48 h
OVCAR-8 ovarian = tested on: OVCAR-8 ovarian
HS 578T breast = tested on: HS 578T breast
SK-MEL-2 melanoma = tested on: SK-MEL-2 melanoma
MDA-MB-435 = tested on: MDA-MB-435
EKVX NSCLC = tested on: EKVX NSCLC
DU-145 prostate = tested on: DU-145 prostate
TK-10 renal = tested on: TK-10 renal
IGROV1 ovarian = tested on: IGROV1 ovarian
NCI-H460 lung = tested on: NCI-H460 lung
COLO 205 colon = tested on: COLO 205 colon

Compound | GI50 (OVCAR-8 ovarian) [µM] | TGI (OVCAR-8 ovarian) [µM] | GI50 (HS 578T breast) [µM] | TGI (HS 578T breast) [µM] | GI50 (SK-MEL-2 melanoma) [µM] | TGI (SK-MEL-2 melanoma) [µM] | GI50 (MDA-MB-435) [µM] | TGI (MDA-MB-435) [µM] | GI50 (EKVX NSCLC) [µM] | TGI (EKVX NSCLC) [µM] | GI50 (DU-145 prostate) [µM] | TGI (DU-145 prostate) [µM] | GI50 (TK-10 renal) [µM] | TGI (TK-10 renal) [µM] | GI50 (IGROV1 ovarian) [µM] | TGI (IGROV1 ovarian) [µM] | GI50 (NCI-H460 lung) [µM] | TGI (NCI-H460 lung) [µM] | GI50 (COLO 205 colon) [µM] | TGI (COLO 205 colon) [µM]
CSc1ccc(C(=O)/C=C/c2ccc(Cl)cc2Cl)cc1 | 20.3 | 43.4 | 28.6 | 68.4 | 17.6 | 59.3 | 26.3 | 88.3 | 20.2 | 78.8 | 25.7 | 89.2 | 20.9 | 52.9 | 15.6 | 31.9 | 26.3 | 96.4 | – | –
CCOC(=O)/C=C1/SC(=Nc2ccc(C#N)cc2)N(Cc2ccco2)C1=O | 2.83 | 7.94 | 6.96 | > 100 | 7.65 | 25.3 | 3.44 | 15.8 | 5.66 | 30.2 | 3.17 | 10.5 | 2.54 | 8.19 | 3.22 | 20.2 | 5.66 | 19.7 | – | –
CSc1nc2c(c(=O)n1C)C(c1ccccc1)C1=C(N2)/C(=C/c2ccccc2)CCC1 (stereo not drawn) | 3.97 | > 100 | 10.2 | 93.8 | 9.48 | 42.6 | 3.99 | > 100 | 24.2 | > 100 | 8.02 | > 100 | 20.9 | > 100 | 13.6 | > 100 | 9.87 | > 100 | 10.3 | > 100
C=CCSC(C)=O | – | > 100 | – | > 100 | – | > 100 | – | > 100 | – | > 100 | – | > 100 | – | > 100 | – | > 100 | – | > 100 | – | > 100
COc1ccc2nc3ccccc3c(NCCNCC(C)O)c2c1 (stereo not drawn) | 0.441 | 11.9 | 1.1 | 12.2 | 0.785 | 2.8 | 0.433 | 1.77 | 1.1 | 7.82 | 0.516 | 14.7 | 0.54 | 6.04 | 0.387 | 5.93 | 0.276 | 10.4 | 0.192 | 0.704
COc1ccc(/C=C/c2ccnc3ccccc23)cc1OC | – | – | – | 81.6 | – | 39 | – | 28.6 | – | 27.9 | – | 26.6 | – | 28.9 | – | 28.9 | – | 28.5 | – | 27.1
Clc1ccc(-c2nc(NCc3ccco3)c3ccccc3n2)c(Cl)c1 | 24.2 | 82.7 | 14.2 | 46.4 | 36.8 | > 100 | 16.1 | 33.7 | – | – | 8.38 | 29.6 | 2.38 | 7.1 | 22.2 | > 100 | 32.9 | > 100 | 21.4 | > 100
COc1cc(C(=O)n2nc(N)c3c(C)cc(C)nc32)cc(OC)c1OC | > 100 | > 100 | > 100 | > 100 | > 64.1 | > 100 | 0.325 | 6.01 | – | – | > 100 | > 100 | > 100 | > 100 | > 100 | > 100 | > 100 | > 100 | > 40.9 | > 100
O=C1C=CC(=O)c2c1nc(CBr)[nH]c2=O | – | > 100 | – | > 100 | – | > 100 | – | 87.4 | – | > 100 | – | > 100 | – | – | – | > 100 | – | – | – | > 100
Cc1c(C(N)=O)sc2nc(C)n(/N=c3\scc(-c4ccccc4)n3Cc3ccccc3)c(=O)c12 | 3.49 | > 100 | 3.85 | > 100 | 3.89 | 86.6 | 2.89 | 12.5 | – | – | 3.9 | > 100 | 3.78 | > 100 | 1.43 | 6.31 | 2.65 | 7.34 | 2.39 | 7.32
O=C1NC(=NCCc2ccc(Br)cc2)S/C1=C\c1ccc2ncccc2c1 | > 25 | > 25 | 11 | > 25 | 21.6 | > 25 | 11.8 | > 25 | – | – | > 25 | > 25 | > 20.1 | > 25 | > 25 | > 25 | > 25 | > 25 | > 25 | > 25
CCC(=O)Nc1nnc(Cc2ccc(OC)c(OC)c2)s1 | > 100 | > 100 | > 100 | > 100 | > 100 | > 100 | > 100 | > 100 | – | – | > 100 | > 100 | > 100 | > 100 | > 100 | > 100 | > 100 | > 100 | > 100 | > 100
